From PubChem BioAssay (NCI)
Values joined by “and” are separate entries in the source; they are usually repeats but may differ in a detail not shown here. Equal values may be shown once.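 Each compound was tested at five concentrations against cells in 96-well plates for 48 hours. The concentration for 50% growth inhibition is given as GI50. TGI marks complete inhibition of growth.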

Legend:
Experiment in all cases: DTP human tumour cell line panel, 48 h
DU-145 prostate = system: DU-145 prostate
MOLT-4 leukemia = system: MOLT-4 leukemia
RPMI-8226 leukemia = system: RPMI-8226 leukemia
BT-549 breast = system: BT-549 breast
SK-MEL-28 melanoma = system: SK-MEL-28 melanoma
COLO 205 colon = system: COLO 205 colon
TK-10 renal = system: TK-10 renal
EKVX NSCLC = system: EKVX NSCLC
KM20L2 colon = system: KM20L2 colon
DLD-1 colon = system: DLD-1 colon

SMILES	GI50 (DU-145 prostate)	TGI (DU-145 prostate)	GI50 (MOLT-4 leukemia)	TGI (MOLT-4 leukemia)	GI50 (RPMI-8226 leukemia)	TGI (RPMI-8226 leukemia)	GI50 (BT-549 breast)	TGI (BT-549 breast)	GI50 (SK-MEL-28 melanoma)	TGI (SK-MEL-28 melanoma)	GI50 (COLO 205 colon)	TGI (COLO 205 colon)	GI50 (TK-10 renal)	TGI (TK-10 renal)	GI50 (EKVX NSCLC)	TGI (EKVX NSCLC)	TGI (KM20L2 colon)	TGI (DLD-1 colon)
Cn1cc(-c2nc(-c3c[nH]c4ncccc34)cs2)c2cc(Cl)ccc21	5.67 µM	> 100 µM	4.27 µM	> 100 µM	4.87 µM	> 100 µM	27.3 µM	> 100 µM	7.43 µM	> 100 µM	3.74 µM	14.6 µM	5.78 µM	> 100 µM	0.678 µM	> 100 µM		
O=C(Nc1ncc([N+](=O)[O-])s1)c1cccc([N+](=O)[O-])c1	9.89 µM	> 100 µM	3.04 µM	> 34.1 µM	1.43 µM	5.41 µM	2.78 µM	11 µM	4.64 µM	> 55.5 µM	4 µM	24.7 µM	4.59 µM	37.3 µM	2.8 µM	> 100 µM		
CCC12CCC(O)C1N(C)CCC2Sc1ccccc1 (centres undefined)				> 100 µM		> 100 µM				> 100 µM		> 100 µM		> 100 µM		> 100 µM	> 100 µM	
Cc1cc(N(CCC#N)CCC#N)ccc1N=Nc1ccccc1[N+](=O)[O-]				> 100 µM						> 100 µM		> 100 µM		> 100 µM		> 100 µM		> 100 µM
COc1ccc(/C=C/C(=O)/C=C(/C=C/c2ccc(OC)c(OC)c2)OB(F)F)cc1OC	1.12 µM	2.84 µM	0.449 µM	6.17 µM	0.427 µM	2.81 µM	1.13 µM	2.68 µM	1.18 µM	3.1 µM	0.37 µM	1.57 µM	1.25 µM	9.48 µM	1.04 µM	> 100 µM		
N#C[C@]12CC3(CC[C@H]1CC1(C2)OCCO1)OCCO3				> 100 µM		> 100 µM				> 100 µM		> 100 µM		> 100 µM			> 100 µM	> 100 µM
Clc1ccc(N2COOC3(OOC2)C2CC4CC(C2)CC3C4)cc1	8.83 µM	> 89 µM	3.82 µM	> 50.7 µM	4.28 µM	14.7 µM	5.96 µM	> 58 µM	> 30.8 µM	> 100 µM	12.7 µM	90.8 µM	4.98 µM	10.5 µM	4.17 µM	> 100 µM		
C=CC[P@@]1(=O)O[C@H](c2ccccc2)C(C)N1C(C)C (some centres undefined)				> 100 µM		> 100 µM				> 100 µM				> 100 µM		> 100 µM		> 100 µM
Cc1c(C(=O)CCl)c(=O)n(-c2ccccc2)n1C	2.22 µM	5.36 µM	2.48 µM	11.5 µM	1.07 µM	4.62 µM	2.46 µM	12.8 µM	3.27 µM	11.6 µM	3.28 µM	11.2 µM	3.81 µM	15.2 µM	12.4 µM	29.1 µM		
Cc1c(C(=O)N/N=C/c2ccc(O)cc2)nnn1-c1ccnc2c(C(F)(F)F)cccc12	> 100 µM	> 100 µM	> 100 µM	> 100 µM	> 100 µM	> 100 µM	41.6 µM	> 100 µM	> 100 µM	> 100 µM	> 100 µM	> 100 µM	> 100 µM	> 100 µM	> 100 µM	> 100 µM		
COc1ccc(/C=C(\C#N)n2nnc3cc(Cl)ccc32)cc1	1.71 µM	7.58 µM	1.09 µM	> 100 µM	0.694 µM	> 100 µM	1.13 µM	> 100 µM	1.33 µM	31.2 µM	0.513 µM	7.01 µM	1.65 µM	11.5 µM	1.47 µM	> 78 µM		
CC1/C=C/C=C/CC/C=C/C=C/C=C/C=C/C(OC2OC(C)C(O)C(N)C2O)CC2OC(CC(O)C(O)CCC(O)CC(O)CC(O)CC(=O)OC(C)C(C)C1O)CC(O)C2C(=O)O (centres undefined)	32.3 µg/mL	32.4 µM and 73.5 µg/mL		38.2 µM	150 µg/mL	45.2 µM and 150 µg/mL	38.8 µg/mL	34.6 µM and 116 µg/mL	25.7 µg/mL	37 µM and 46.3 µg/mL	81.7 µg/mL	56.8 µM and 150 µg/mL	28.3 µg/mL	32.5 µM and 53.6 µg/mL		30.9 µM		
CCCCCCC(O)C/C=C/CCCCCC/C(C(=O)OC)=C(/O)C(=O)OCC (centres undefined)				> 100 µM		> 100 µM				> 100 µM		> 100 µM		> 100 µM		> 100 µM		> 100 µM
COC(=O)C(=O)C(C(=O)C(=O)Nc1ccc([N+](=O)[O-])cc1[N+](=O)[O-])c1nc2ccc([N+](=O)[O-])cc2[nH]c1=O (centres undefined)				> 100 µM		> 100 µM						> 100 µM		> 100 µM		> 100 µM	> 100 µM	> 100 µM
C[C@@H](Oc1cc(-c2cnn(C3CCNCC3)c2)cnc1N)c1c(Cl)ccc(F)c1Cl	2.74 µM	> 10 µM	0.701 µM	4.39 µM	1.91 µM	8.64 µM	5.24 µM	> 10 µM	1.61 µM	3.54 µM	0.42 µM	1.57 µM	2.76 µM	> 10 µM	8.07 µM	> 10 µM		
N#Cc1c2ccccc2c2nnc3cc(C(F)(F)F)ccc3n12	58.4 µM	> 100 µM	34.7 µM	> 100 µM	55.1 µM	> 100 µM	57.2 µM	> 100 µM	92.3 µM	> 100 µM	37.4 µM	> 100 µM	99.8 µM	> 100 µM	> 100 µM	> 100 µM		
COc1cc(/C=C2\CC(C)CC3C2=NN(c2ccccc2)C3c2cc(OC)c(OC)c(OC)c2)cc(OC)c1OC (centres undefined)	15.4 µM	45.7 µM	13 µM	> 100 µM	3 µM	26.5 µM	10.1 µM	39.9 µM	11.2 µM	39.7 µM	17.5 µM	> 100 µM	24.3 µM	93.3 µM	13.5 µM	> 100 µM		
